According to ChEMBL document CHEMBL3108752, “Iridal-type triterpenoids with neuroprotective activities from Iris tectorum” (2014):

Test system: PC-12
Assay: Neuroprotective activity against serum-deprivation-induced damage in rat PC12 cells assessed as survival rate at 10 uM after 48 hrs by MTT assay relative to control
Assay type: functional
Conditions: PC-12, 48 h, read-out: Survival

SMILES	viability at 10 µM [%]
CC(C)=CCC/C(C)=C/[C@H]1C=C(CO)[C@@H]2CC[C@]3([C@H](CCCO)/C(=C(/C)C=O)CC[C@]3(C)O)[C@@H]2O1	63.8
CC(C)=CCC/C(=C\[C@H]1C=C(CO)[C@@H]2CC[C@]3([C@H](CCCO)/C(=C(/C)C=O)CC[C@]3(C)O)[C@@H]2O1)CO	54.1
CC(C)=CCC/C(=C\[C@H]1C=C(CO)[C@@H]2CC[C@]3([C@H](CCCO)/C(=C(\C)C=O)CC[C@]3(C)O)[C@@H]2O1)CO	50.9
